The results in this text go back to patent EP0683161A1, “Ester of 4-amino-5-chloro-2-methoxybenzoic acid, process for their preparation and pharmaceutical compositions containing them” (MIDY S.p.A., priority 1994, dated 1995).

Assay [1] deals with T1, récepteur 5-HT₄ (Cavia porcellus, UniProt O70528).
T1 construct: On isole le plexus myentérique à partir de segments d'iléon de 3 cm environ; from tissue; host or cells: guinea pig ileum myenteric plexus (isolated organ bath)
Description: 5-HT response of the electrically stimulated guinea pig ileum myenteric plexus (modified Craig and Clarke test). On the set-up: species or system cobayes. The settings on record: 30 min incubation, cumulative 5-HT curve 10⁻¹⁰ to 10⁻⁵M. The text has this: Dans le but d'évaluer l'activité vis-à-vis du récepteur 5-HT₄, on a soumis les composés de l'invention à l'essai décrit par D.A. Craig et D.E. Clarke. (J. Pharmacol. Exp. Ther., 1990, 252: 1378-86) en lui apportant quelques modifications.
Des cobayes albinos mâles - Charles River Italia - (poids moyen de 500 g) sont sacrifiés par décapitation. On isole le plexus myentérique à partir de segments d'iléon de 3 cm environ, prélevés à 10 cm de la jonction iléooeecale; on place le plexus dans un bain de 20 ml pour organes isolés, contenant une solution de Krebs et de l'acide ascorbique à raison de 1 mg/ml. On maintient la solution, aérée au carboxygène, à la température de 37°C. Le plexus, relié à un transducteur isotonique et soumis à une charge de 0,5 g, est stimulé électriquement de façon supramaximale (fréquence 0,2 Hz, durée […]) par une électrode coaxiale au platine. La préparation est traitée avec de la phénoxybenzamine 10⁻⁷M pendant 30 minutes et, ensuite, lavée plusieurs fois. On réduit le voltage jusqu'à obtenir un effet stimulant de 50% par rapport au maximum et le plexus est ensuite stimulé par la sérotonine à raison de 3·10⁻⁷M. Après lavage et stabilisation, la préparation est prête pour l'essai des composés à activité 5-HT₄. Trois courbes cumulatives de 5-HT sont construites toutes les 60 minutes. […]

In another assay the target is récepteurs 5-HT₄ (Rattus norvegicus, UniProt Q62758). The assay is described as follows: 5-HT relaxation of carbachol-contracted rat oesophagus tunica muscularis mucosae (Baxter and Clarke method). To be noted: rat oesophagus tunica muscularis mucosae contracted by carbachol; result in words only.
The target of another assay is T2, récepteur 5-HT₃ (Rattus norvegicus, UniProt P35563).
T2 construct: les sites de liaison 5-HT₃ présents dans le cortex cérébral du rat; from tissue; host or cells: rat cerebral cortex membranes
T2 sequence (P35563 24-483): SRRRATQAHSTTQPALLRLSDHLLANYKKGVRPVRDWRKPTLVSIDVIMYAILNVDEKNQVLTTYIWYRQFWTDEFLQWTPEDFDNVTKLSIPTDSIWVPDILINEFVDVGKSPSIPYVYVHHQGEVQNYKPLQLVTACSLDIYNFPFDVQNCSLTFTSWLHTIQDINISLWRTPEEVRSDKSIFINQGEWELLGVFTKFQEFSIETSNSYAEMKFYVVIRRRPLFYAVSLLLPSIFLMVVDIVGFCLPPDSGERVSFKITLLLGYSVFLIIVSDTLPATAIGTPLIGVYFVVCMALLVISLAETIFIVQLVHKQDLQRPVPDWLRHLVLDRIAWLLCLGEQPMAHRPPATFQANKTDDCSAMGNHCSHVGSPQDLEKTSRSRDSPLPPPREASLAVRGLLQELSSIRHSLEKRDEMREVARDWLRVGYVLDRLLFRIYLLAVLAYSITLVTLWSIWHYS
Description: in vitro binding to 5-HT3 sites of rat cerebral cortex, displacement of [3H] BRL 43694 (granisetron). To be noted: rat cerebral cortex membranes, labelled ligand 0,5 nM. How it is done: Afin de tester l'affinité du composé de formule (I) relativement au récepteur 5-HT₃, on a effectué des essais de liaison in vitro en utilisant les sites de liaison 5-HT₃ présents dans le cortex cérébral du rat (G.J. Kilpatrick, B.J. Jones et M.B. Tyers, Nature, 1987; 330: 746-8) et comme ligand marqué le [³H] BRL 43694 (granisetron), un antagoniste des récepteurs 5-HT₃ puissant et spécifique, à la concentration de 0,5 nM.
La préparation des membranes et le test de liaison ont été effectués selon la méthode décrite par Nelson et Thomas (D.R. Nelson et D.R. Thomas, Biochem. Pharmacol., 1989; 38: 1693-5).
Les résultats ont été évalués avec des méthodes d'ajustement ("fitting") non linéaire "Accufit saturation", pour les études de saturation (H.A. Feldman, Analyt. Biochem., 1972; 48: 317-38) et "Accufit competition", pour les études de déplacement (H.A. Feldman, D. Rodbard et D. Levine, Analyt. Biochem., 1972; 45: 530-56).

The target in assay [2] is récepteur 5-HT₄ (Homo sapiens, UniProt Q13639). The assay is described as follows: activity of the separated cis and trans isomers at the 5-HT4 receptor (test not specified). To be noted: cis and trans isomers evaluated separately.

Molecules are shown by their SMILES.

Chain of récepteurs 5-HT₄ (Q62758 whole entry): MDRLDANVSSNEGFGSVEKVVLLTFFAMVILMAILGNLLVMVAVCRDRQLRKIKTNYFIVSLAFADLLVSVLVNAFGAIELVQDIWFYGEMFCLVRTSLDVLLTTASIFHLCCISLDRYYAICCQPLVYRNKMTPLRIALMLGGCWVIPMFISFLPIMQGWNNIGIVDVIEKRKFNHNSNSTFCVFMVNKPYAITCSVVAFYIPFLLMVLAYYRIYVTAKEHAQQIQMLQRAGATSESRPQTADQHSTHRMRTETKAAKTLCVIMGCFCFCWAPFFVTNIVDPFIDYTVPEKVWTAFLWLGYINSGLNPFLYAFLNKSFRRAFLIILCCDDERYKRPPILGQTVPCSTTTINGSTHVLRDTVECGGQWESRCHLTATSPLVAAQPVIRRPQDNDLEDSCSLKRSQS
Chain of récepteur 5-HT₄ (Homo sapiens, UniProt Q13639) (Q13639 whole entry): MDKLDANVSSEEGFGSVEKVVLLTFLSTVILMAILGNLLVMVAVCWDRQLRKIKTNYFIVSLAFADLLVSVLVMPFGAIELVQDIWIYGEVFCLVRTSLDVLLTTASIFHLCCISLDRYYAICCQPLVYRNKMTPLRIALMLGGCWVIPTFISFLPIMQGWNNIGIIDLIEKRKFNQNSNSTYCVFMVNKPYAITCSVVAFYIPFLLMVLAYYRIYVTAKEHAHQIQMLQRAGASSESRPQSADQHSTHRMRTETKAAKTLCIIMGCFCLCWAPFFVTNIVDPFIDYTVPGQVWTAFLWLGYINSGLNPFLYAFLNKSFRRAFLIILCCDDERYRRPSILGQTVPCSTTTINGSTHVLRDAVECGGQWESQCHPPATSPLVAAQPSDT
T1 sequence (O70528 whole entry): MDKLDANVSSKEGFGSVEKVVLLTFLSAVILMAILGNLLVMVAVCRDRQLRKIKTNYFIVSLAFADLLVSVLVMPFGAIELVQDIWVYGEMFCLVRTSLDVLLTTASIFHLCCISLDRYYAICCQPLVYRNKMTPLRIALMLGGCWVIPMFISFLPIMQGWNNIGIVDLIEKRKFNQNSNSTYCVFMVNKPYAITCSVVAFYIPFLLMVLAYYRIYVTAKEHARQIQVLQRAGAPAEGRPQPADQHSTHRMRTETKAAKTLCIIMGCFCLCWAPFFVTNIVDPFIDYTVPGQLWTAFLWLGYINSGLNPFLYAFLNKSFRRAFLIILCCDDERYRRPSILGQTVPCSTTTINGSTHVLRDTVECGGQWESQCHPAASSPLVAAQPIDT
Description for récepteurs 5-HT₄: De plus, toujours pour l'évaluation de l'activité 5-HT₄, on a soumis le composé de formule (I) à un essai sur la tunica muscolaris mucosae de l'oesophage de rat contracté par du carbacol. […] Des rats mâles Crl:CD(SD)BR (Charles River Italia) d'un poids moyen de 250 g sont sacrifiés par dislocation cervicale. Un segment d'oesophage d'environ 2 cm est prélevé au niveau intratoraxique à proximité du diaphragme. La tunica muscolaris mucosae est ensuite isolée et suspendue dans un bain pour organes isolés de 20 ml contenant une solution de Krebs en présence d'hydrocortisone (3·10⁻⁷ M) à 37°C aérée avec 95% O₂ et 5% CO₂. Le tissu est relié à un transducteur isotonique et soumis à une charge de 1 g. La préparation est incubée avec de la pargiline (10⁻⁴ M) pendant 30 minutes et lavée plusieurs fois. Après 60 minutes environ, on contracte le tissu avec des doses cumulatives de carbacol (10⁻⁶, 2·10⁻⁶, 3·10⁻⁶, 4·10⁻⁶ M); de cette manière, on obtient un tonus du tissu stable dans le temps. La 5-HT (10⁻¹⁰ et 10⁻⁶ M), qui est ajoutée cumulativement, relaxe l'oesophage grâce à l'activation des récepteurs 5-HT₄. Trois courbes de carbacol sont construites par préparation toutes les 90 minutes. Après chaque courbe, on procède au moins à 4 lavages. Aussi bien la contraction provoquée par le carbacol que les effets sur celle-ci sont identiques et peuvent être reproduits. […]

`COc1cc(N)c(Cl)cc1C(=O)OCCN1CC(C)CC(C)C1` (stereo not shown) [composé de formule (I), ester 3,5-diméthylpipéridinoéthyliquede l'acide 4-amino-5-chloro-2-méthoxybenzoïque]: the “IC₅₀, dose qui réduit de 50% la réponse de la 5-HT” value at récepteur 5-HT₄ [1] is on record as “quelques nanomoles”. Further, the “pA₂ (antagonism of 5-HT relaxation)” value on récepteurs 5-HT₄ is on record as “très efficace”. For the same molecule, the “déplacement du [³H] BRL 43694” value at récepteur 5-HT₃ was “inactif”.

`COc1cc(N)c(Cl)cc1C(=O)OCCN1CC(C)CC(C)C1` (stereo not drawn) [isomère cis, isomère cis de l'ester 3,5-diméthylpipéridinoéthyliquede l'acide 4-amino-5-chloro-2-méthoxybenzoïque]: the “activité vis-à-vis du récepteur 5-HT₄” value at récepteur 5-HT₄ [2] is recorded as “le plus actif”.
